Assay results from US20240285765A1, “PHTHALOCYANINE DYE COMPOUNDS, CONJUGATES AND METHODS OF USE THEREOF” (Rakuten Medical, Inc., priority 2021, published 2024).
Where two headings read alike, the source gives them in different places.

What was measured:
[1] = Thermodynamic solubility in pH 7.4 DPBS, UV quantification; format: physicochemical; conditions: Dulbecco's phosphate-buffered saline (DPBS), aqueous buffer, thermodynamic from solid, room temperature (25° C.)
Procedure: A working 1 mM stock solution of the test compound in DMSO was prepared from a 10 mM DMSO stock solution. A spectrum scan from 220 nm to 1000 nm of this working solution was performed in a 96-well UV plate to identify the wavelength maxima. […] The selected stock solution was serially diluted in DMSO to confirm linearity and generate a seven to eight-point calibration curve. Of note, only linear points were considered in the curve.
The resulting solution was placed on a RotoSpin™ shaker at 50 rpm for 24 hours at room temperature (25° C.). The solution was then filtered using a 0.45 μm PVDF filter to remove any insoluble fraction of the compound. A 150 μL aliquot of the filtrate was taken for quantification using UV spectroscopy (POLARstar Omega BMG Plate Reader). The optical densities of the standard solutions and the test sample were acquired at the same wavelength maxima. The test sample concentration was calculated from its optical density using the linearity/calibration curve.

[2] = cited from earlier work
[3] = Singlet oxygen quantum yield, indirect method with chemical quencher (DPBF or ADMA); format: physicochemical; conditions: quencher ADMA, aqueous media, 670 nm LED 5 mW/cm^2, reference AlPcSmix
From the text: Photogeneration quantum yields of singlet oxygen (ΦΔ) were obtained by an indirect method, using either diphenylisobenzofuran (DBPF) or anthracene-9,10-bis-methylmalonate (ADMA) as chemical quenchers in either N,N-dimethylformamide or aqueous media, respectively. Typically, a solution of the phthalocyanine and the quencher was irradiated with a red LED lamp (670 nm) at 5 mW/cm^2. The initial DPBF or ADMA concentrations were kept the same for both the reference and the test samples. The degradation of the DPBF band at 414 nm or ADMA at 401 nm was monitored in a Varian Cary® 50 UV-Vis spectrophotometer, every five seconds in the case of DPBF (up to 30 seconds) and every minute in the case of ADMA (up to five minutes). ZnPc (ΦΔ=0.67) and AlPcSmix (ΦΔ=0.42) were used as references in N,N-dimethylformamide or aqueous media, respectively.
The relative method shown by Eq. (1) was employed for calculations of the ΦΔ:
[formula] • where ΦΔ and ΦΔref are the ^1O2 generation quantum yields for the sample and reference, respectively, m and mref are the DPBF or ADMA photobleaching rates in the presence of the phthalocyanine of the invention and the reference, respectively, and I and Iref are the rates of light absorption by the phthalocyanine derivative and reference, respectively. Concentrations of the test compound and reference were chosen such that their respective absorptions at the irradiation wavelength were the same.

[4] = UV-Vis absorption spectra; format: physicochemical
Procedure: The UV-Vis absorption spectra of the compounds in either an organic solvent or aqueous media was recorded in a Varian Cary® 50 UV-Vis spectrophotometer. Compounds of the invention show absorption in the 600-800 nm region of the spectra.

BxPC3 cells = experiment: Cell killing of free dye PIT, CellTox Green Cytotoxicity Assay; format: cell-based; conditions: BxPC3, 0-1 μg/mL free dye, 690 nm laser 64 J/cm2, 24 hours after light
Procedure: The PIT killing activity of free dyes were evaluated using the molecules synthesized as Example 12 and Example 13. BxPC3 cells (#CRL-1687, ATCC, Manassas VA) were plated, 5,000 cells per well, in RPMI-1640 media supplemented with 10% FBS and 1% Penicillin/Streptomycin (complete culture media) in a deep-well 96-well plate. Following overnight incubation at 37° C., the culture media were removed and the cells were incubated in 100 μL complete media with 1, 0.333, 0.111, 0.03704, 0.01235, 0.00412, 0.00137, or 0 μg/mL Example 12, Example 13, or IRDye 700DX carboxylate (control) for one hour at 4° C. […]
The effect of different treatment regimens on cell death was measured using the CellTox™ Green Cytotoxicity Assay (Cat No: G8742, Promega, Madison, WI). […] The CellTox™ Green fluorescence signal was measured at 24 hours after light treatment using a fluorescence plate reader. The cells were then lysed with diluted lysis solution (Cat No: G1821, Promega, Madison, WI), incubated at 37° C. for 30 minutes, and the CellTox™ Green fluorescence signal was measured again post-lysis. The percentages of dead cells were calculated by taking the ratio between background (1× CellTox™ Green in complete culture media without cells)-subtracted CellTox™ Green signal per well prior to and post lysis and multiplying the ratio by 100.

[5] = Kinetic (aqueous) solubility in pH 7.4 DPBS, UV quantification; conditions: kinetic; pH 7.4 DPBS, 4 hours, room temperature (25° C.)

| Compound | solubility thermodynamic at 24 h [1] [µg/mL] | ΦΔ (singlet oxygen quantum yield) [3] | cell death (cytotoxicity) following illumination (BxPC3 cells) | Solubility* (kinetic solubility) [5] | other results |
| --- | --- | --- | --- | --- | --- |
| C[Si](C)(CCC[N+](CCCCS(=O)(=O)O)(CCCCS(=O)(=O)O)CCCCS(=O)(=O)O)O[Si-2]123(O[Si](C)(C)CCC[N+](CCCCS(=O)(=O)O)(CCCCS(=O)(=O)O)CCOCCOCCOCCOCCC(=O)O)n4c5c6ccccc6c4N=C4c6ccccc6C(=[N+]41)N=c1c4ccccc4c(n12)=NC1=[N+]3C(=N5)c2ccccc21.[Na+].[Na+].[Na+].[Na+] [Example 22, Sodium 2-((19-((dimethyl(3-(tris(4-sulfonatobutyl)ammonio)propyl)silyl)oxy)-19H-6,11-(azeno)-17,21-(azeno[3]episoindoloazeno)benzo[7,8][1,3,5,10]tetraaza[2]silacycloundecino[4,3-a:11,1-a′]diisoindol-19-yl)oxy)-2-methyl-6,6-bis(4-sulfonatobutyl)-9,12,15,18-tetraoxa-6-aza-2-silahenicosan-6-ium-21-oate] | > 100 | – | – | – | – |
| C[Si](C)(CCCNC(=O)CCCCC(=O)O)O[Si-2]123(O[Si](C)(C)CCCNC(=O)C(CCC[N+](CCCS(=O)(=O)O)(CCCS(=O)(=O)O)CCCS(=O)(=O)O)CCC[N+](CCCS(=O)(=O)O)(CCCS(=O)(=O)O)CCCS(=O)(=O)O)n4c5c6ccccc6c4N=C4c6ccccc6C(=[N+]41)N=c1c4ccccc4c(n12)=NC1=[N+]3C(=N5)c2ccccc21.[Na+].[Na+].[Na+].[Na+].[Na+] [Example 20] | > 100 | – | – | – | – |
| AlPcSmix | – | – | – | – | ΦΔ of reference ([2]; reference in aqueous media): 0.42 |
| 4-((6-((λ5-azaneyl)oxy)-6-oxohexyl)(4-(((λ5-azaneyl)oxy)sulfonyl)butyl)(3-(((19-(((3-(bis(4-(((λ5-azaneyl)oxy)sulfonyl)butyl)(4-sulfonatobutyl)ammonio)propyl)dimethylsilyl)oxy)-19H-6,11-(azeno)-17,21-(azeno[3]episoindoloazeno)benzo[7,8][1,3,5,10]tetraaza[2]silacycloundecino[4,3-a:11,1-a′]diisoindol-19-yl)oxy)dimethylsilyl)propyl)ammonio)butane-1-sulfonate [Example 13] | – | B (B: >0.5) | dose-dependent cytotoxicity | C (C: >100 μg/mL) | maximum UV absorbance (UVmax) [4]: 677 nm; absorption at 690 nm relative to UVmax ([4]; wavelength 690 nm): approximately 50% |
| [Zn+2].c1ccc2c(c1)-c1nc-2nc2[n-]c(nc3nc([n-]c4nc(n1)-c1ccccc1-4)-c1ccccc1-3)c1ccccc21 [ZnPc] | – | – | – | – | ΦΔ of reference ([2]; reference in N,N-dimethylformamide): 0.67 |
| 3-((6-((λ^5-azaneyl)oxy)-6-oxohexyl)(3-(((λ5-azaneyl)oxy)sulfonyl)propyl)(3-(((19-(((3-(bis(3-(((λ5-azaneyl)oxy)sulfonyl)propyl)(3-sulfonatopropyl)ammonio)propyl)dimethylsilyl)oxy)-19H-6,11-(azeno)-17,21-(azeno[3]episoindoloazeno)benzo[7,8][1,3,5,10]tetraaza[2]silacycloundecino[4,3-a:11,1-a′]diisoindol-19-yl)oxy)dimethylsilyl)propyl)ammonio)propane-1-sulfonate [Example 12] | – | B (B: >0.5) | dose-dependent cytotoxicity | C (C: >100 μg/mL) | – |
